Values after ≈ are worked out from the molar mass of the structure shown.
What was measured:
Format in all cases: cell-based
[1] = system: Leishmania donovani strain MHOM/ET/67/L82; experiment: Leishmaniasis macrophage in vitro screening model; settings: amastigotes in murine macrophages, n=4
Description: The Leishmania donovani strain MHOM/ET/67/L82 obtained from Dr. S. Croft, London) is used. The strain is maintained in the Syrian Golden hamster. Amastigotes are collected from the spleen of an infected hamster Amastigotes are grown in axenic culture at 37° C. in SM medium (Cunningham I., J. […] Primary peritoneal macrophages from NMRI mice are collected 1 day after a macrophage production stimulation with an i.p injection of 2 ml of a 2% potato starch suspension (FLUKA, Switzerland) All cultures and assays are done at 37° C. under an atmosphere of 5% CO2 in air. […] After use the stocks are kept at -20° C. For the assays, the compound is further diluted in serum-free culture medium and finally to the appropriate concentration in complete medium. Assays are performed in sterile 16-well chamber slides (LabTek, Nalgene/Nunc Int.) To each well 100 μl of a murine macrophage suspension (4×10^5/ml) in RPMI 1640 (containing bicarbonate and HEPES) supplemented with 10% heat inactivated fetal bovine serum is added. […] Infected and non-infected macrophages are counted for the control cultures and the ones exposed to the serial drug dilutions. The infection rates are determined. The results are expressed as % reduction in parasite burden compared to control wells, and the IC50 calculated by linear regression analysis. […]

[2] = system: Leishmania donovani strain MHOM/ET/67/L82; experiment: Leishmania donovani axenic amastigote assay; settings: axenic amastigotes
[3] = system: Trypanosoma brucei gambiense STIB 930; experiment: Trypanosoma brucei whole cell assay, secondary screen STIB 930
Description: The bloodstream form trypomastigotes of strain b are maintained in MEM medium with Earle's salts supplemented with 25 mM HEPES, 1 g/l additional glucose, 1% MEM non-essential aminoacids (100×), 0.2 mM 2-mercaptoethanol, 2 mM Na-pyruvate, 0.1 mM hypoxanthine, 0.05 mM bathocuproine disulphonic acid, 0.15 mM L-cysteine and 15% heat inactivated pooled human serum.
Assays are performed in 96-well microtiter plates, each well containing 100 μl of culture medium with 8×10^3 bloodstream forms with or without a serial drug dilution. The highest concentration for the test compounds is 90 μg/ml. Seven 3-fold dilutions are used covering a range from 90 μg/ml to 0.123 μg/ml. […]

[4] = system: Trypanosoma brucei rhodesiense STIB 900; experiment: Trypanosoma brucei whole cell assay, primary screen; settings: read-out: ICo
Description: The bloodstream form trypomastigotes of the strains a and c are maintained in MEM medium with Earle's salts supplemented with 25 mM HEPES, 1 g/l additional glucose, 1% MEM nonessential amino acids (100×), 0.2 mM 2-mercaptoethanol, 2 mM Na-pyruvate, 0.1 mM hypoxanthine and 15% heat inactivated horse serum.
All cultures and assays are conducted at 37° C. under an atmosphere of 5% CO2 in air.
After use the stocks are kept at −20° C. For the assays, the compound is further diluted to the appropriate concentration using complete medium.
Assays are performed in 96-well microtiter plates, each well containing 100 μl of culture medium with 8×10^3 bloodstream forms with or without a serial drug dilution. The highest concentration for the test compounds is 90 μg/ml. Seven 3-fold dilutions are used covering a range from 90 μg/ml to 0.123 μg/ml. Each drug is tested in duplicate and each assay is repeated at least once. […]
10 μl of Alamar Blue (12.5 mg resazurin dissolved in 100 ml distilled water) are now added to each well and the plates incubated for another 2 hours. Then the plates are read with a Spectramax Gemini XS microplate fluorometer (Molecular Devices Cooperation, Sunnyvale, Calif., USA) using an excitation wave length of 536 nm and an emission wave length of 588 nm. Data are analysed using the microplate reader software Softmax Pro (Molecular Devices Cooperation, Sunnyvale, Calif., USA). […]

T. b. brucei STIB 950 = experiment: Trypanosoma brucei whole cell assay, secondary screen STIB 950; settings: STIB950

| Compound | IC50 [1] [ng/mL] | IC50 [2] [ng/mL] | IC50 [3] [ng/mL] | IC50 [4] [ng/mL] | IC50 (T. b. brucei STIB 950) [ng/mL] |
| --- | --- | --- | --- | --- | --- |
| CCCCCCCCCCCCCCCCOP(=O)([O-])OCC[N+](C)(C)C [Miltefosine] | 325 (≈ 0.797 µM) | 120 (≈ 0.294 µM) |  |  |  |
| Nc1nc(N)nc(Nc2ccc([As]3SCC(CO)S3)cc2)n1 (centres unmarked) [melarsoprol] |  |  | 4.2 | 1.6 | 2.8 |

Source: patent US7601702B2, “Dutpase Inhibitors” (Medivir AB, priority 2004, dated 2009)
